B1: IFN-γ: proinflammatory mediator (protein, UniProt P01579 24-161, looked up)
Interferon gamma: QDPYVKEAENLKKYFNAGHSDVADNGTLFLGILKNWKEESDRKIMQSQIVSFYFKLFKNFKDDQSIQKSVETIKEDMNVKFFNSNKKKRDDFEKLTNYSVTDLNVQRKAIHELIQVMAELSPAAKTGKRKRSQMLFRG

Assays:
[1] = mouse, in vivo
Protocol: Animals were intragastrically gavaged with a bolus (2 g/kg) of either labeled ^13C2-Butyrate or non-labeled ^12C-Butyrate. The small and large intestines were then harvested 6 hours later and prepared for analysis as above. […] The ratio of the labeled to unlabeled peak areas were adjusted to incorporate natural distribution of ^13C label and expressed as percentage of ^13C incorporation into the butyrate pool in the luminal contents (Lumen) and intestinal tissue.
It was next determined whether there was a difference in the uptake and metabolism of the exogenously administered butyrate between the syngeneic and allogeneic recipients. To this end, metabolic flux analysis (MFA) assessing label incorporation of heavy 13C labeled butyrate into luminal and intestinal tissue butyrate pools was performed by utilizing GC/MS as above. Recipients of syngeneic and allogeneic transplant were treated 7 days after BMT with a bolus of either^13C-butyrate or regular ^12C-butyrate, which served as the control. The IECs and luminal contents were harvested 6 hours later and analyzed for incorporation of ^13C.

SLC5A8 = assay: Primary IECs cultured with proinflammatory mediators; format: cell-based, mouse; settings: primary IECs exposed to IFN-γ and/or TNF
Protocol: It was next explored whether the diminished concentration of butyrate observed in the intestinal tissue was from impaired uptake of butyrate following allo-BMT. To this end, the expression of the known butyrate monocarboxylate transporter (SLC5A8) and the receptor of butyrate (GPR43) was analyzed in IECs following allo-BMT (Ganapathy, V., Thangaraju, M., Prasad, P. D., Martin, P. M. & Singh, N. Transporters and receptors for short-chain fatty acids as the molecular link between colonic bacteria and the host. Curr Opin Pharmacol 13, 869-874 (2013); Furusawa, Y. et al. Commensal microbe-derived butyrate induces the differentiation of colonic regulatory T cells. Nature (2013)). […] Primary IECs were cultured with proinflammatory mediators (IFN-γ and/or TNF) and expression of the butyrate transporter SLC5A8 was analyzed.

[2] = IECs from large intestine, allogeneic vs syngeneic recipients

Molecule | heavy carbon in malate [2] | incorporation into succinate [2] | 13C incorporation in malate (IECs from small and large intestines combined, allo-BMT vs syngeneic) | 13C heavy butyrate in the intestinal tissue [1] | expression of Slc5a8 (SLC5A8)
CC[13CH2][13C](=O)[O-].[Na+] [^13C-butyrate, Sodium butyrate-1,2-^13C2] | significant difference | trend towards greater incorporation | overall increased level | significantly decreased | –
B1 | – | – | – | – | significantly decreased
